Data reported in patent US9505750B2, “5-aminocyclylmethyl-oxazolidin-2-one derivatives” (priority 2007, dated 2016).
Converted amounts (≈) assume the structure as drawn.

Each molecule was assayed on M. catarrhalis A894 (assay: MIC determination by microdilution in cation-adjusted Mueller-Hinton Broth (NCCLS)). Conditions: Moraxella catarrhalis, pH 7.2-7.3.
Type: cell-based
Description: These assays have been performed following the description given in “Methods for dilution Antimicrobial Susceptibility Tests for Bacteria that Grow Aerobically, 4th ed.; Approved standard: NCCLS Document M7-A4; National Committee for Clinical Laboratory Standards: Villanova, Pa., USA, 1997”. Minimal inhibitory concentrations (MICs; mg/l) were determined in cation-adjusted Mueller-Hinton Broth (BBL) by a microdilution method following NCCLS guidelines (National Committee for Clinical Laboratory Standards. Methods for Dilution Antimicrobial Susceptibility). The pH of the test medium was 7.2-7.3. All Example compounds were tested against several Gram-positive and Gram-negative bacteria.

Structure (SMILES)	MIC [µg/mL]
COc1ccc2nccc(NCC3CN(C[C@@H]4CN(c5ccc6c(c5)NC(=O)CS6)C(=O)O4)C3)c2n1 [Example 14, 6-((R)-5-{3-[(6-methoxy-[1,5]naphthyridin-4-ylamino)-methyl]-azetidin-1-ylmethyl}-2-oxo-oxazolidin-3-yl)-4H-benzo[1,4]thiazin-3-one]	≤ 0.031
COc1ccc2nccc(NC3CCN(C[C@@H]4CN(c5ccc6c(c5)NC(=O)CO6)C(=O)O4)CC3)c2n1 [Example 35, 6-{(R)-5-[4-(6-methoxy-[1,5]naphthyridin-4-ylamino)-piperidin-1-ylmethyl]-2-oxo-oxazolidin-3-yl}-4H-benzo[1,4]oxazin-3-one]	≤ 0.031
COc1ccc2ncc(F)c(NC3CN(C[C@@H]4CN(c5ccc6c(c5)NC(=O)CO6)C(=O)O4)C3)c2n1 [Example 23, 6-{(R)-5-[3-(3-fluoro-6-methoxy-[1,5]naphthyridin-4-ylamino)-azetidin-1-ylmethyl]-2-oxo-oxazolidin-3-yl}-4H-benzo[1,4]oxazin-3-one]	≤ 0.031
COc1ccc2ncnc(OC3CCN(C[C@@H]4CN(c5ccc6c(c5)NC(=O)CS6)C(=O)O4)CC3)c2c1 [Example 20, 6-{(R)-5-[4-(6-methoxy-quinazolin-4-yloxy)-piperidin-1-ylmethyl]-2-oxo-oxazolidin-3-yl}-4H-benzo[1,4]thiazin-3-one]	≤ 0.031
COc1ccc2nccc(NC3CN(C[C@@H]4CN(c5ccc6c(c5)NC(=O)CS6)C(=O)O4)C3)c2c1 [Example 37, 6-{(R)-5-[3-(6-methoxy-quinolin-4-ylamino)-azetidin-1-ylmethyl]-2-oxo-oxazolidin-3-yl}-4H-benzo[1,4]thiazin-3-one]	0.125 (≈ 0.254 µM)
COc1ccc2nccc([C@@H](O)[C@H](O)C3CCN(C[C@@H]4CN(c5ccc6c(c5)NC(=O)CS6)C(=O)O4)C3)c2n1 (mixture of isomers) [Example 11, 6-((R)-5-{(RS)-3-[(1R,2R)-1,2-dihydroxy-2-(6-methoxy-[1,5]naphthyridin-4-yl)-ethyl]-pyrrolidin-1-ylmethyl}-2-oxo-oxazolidin-3-yl)-4H-benzo[1,4]thiazin-3-one]	0.125
COc1ccc2ncnc(OC3CCN(C[C@@H]4CN(c5cc6c(nn5)OCCO6)C(=O)O4)C3)c2c1 (mixture of isomers) [Example 33, (R)-3-(6,7-dihydro-[1,4]dioxino[2,3-c]pyridazin-3-yl)-5-[(RS)-3-(6-methoxy-quinazolin-4-yloxy)-pyrrolidin-1-ylmethyl]-oxazolidin-2-one]	0.25
O=C1COc2ccc(N3C[C@@H](CN4CC(Nc5ccnc6ccc(F)cc56)C4)OC3=O)cc2N1 [Example 43, 6-{(R)-5-[3-(6-fluoro-quinolin-4-ylamino)-azetidin-1-ylmethyl]-2-oxo-oxazolidin-3-yl}-4H-benzo[1,4]oxazin-3-one]	0.25 (≈ 0.539 µM)
N#Cc1ccc2nccc(NC3CN(C[C@@H]4CN(c5ccc6c(c5)NC(=O)CS6)C(=O)O4)C3)c2c1 [Example 38, 4-{1-[(R)-2-oxo-3-(3-oxo-3,4-dihydro-2H-benzo[1,4]thiazin-6-yl)-oxazolidin-5-ylmethyl]-azetidin-3-ylamino}-quinoline-6-carbonitrile]	0.125 (≈ 0.257 µM)

Further lines, results first:

MIC [µg/mL]	Structure (SMILES)
≤ 0.031	COc1ccc2nccc(NC3CN(C[C@@H]4CN(c5ccc6c(c5)OCCO6)C(=O)O4)C3)c2n1 [Example 42, (R)-3-(2,3-dihydro-benzo[1,4]dioxin-6-yl)-5-[3-(6-methoxy-[1,5]naphthyridin-4-ylamino)-azetidin-1-ylmethyl]-oxazolidin-2-one]
≤ 0.031	COc1ccc2ncc(F)c(CNC3CN(C[C@@H]4CN(c5ccc6c(c5)NC(=O)CO6)C(=O)O4)C3)c2n1 [Example 26, 6-((R)-5-{3-[(3-fluoro-6-methoxy-[1,5]naphthyridin-4-ylmethyl)-amino]-azetidin-1-ylmethyl}-2-oxo-oxazolidin-3-yl)-4H-benzo[1,4]oxazin-3-one]
0.5 (≈ 0.962 µM)	COc1ccc2nccc(NC3CCN(C[C@@H]4CN(c5ccc6c(c5)NC(=O)CS6)C(=O)O4)CC3)c2c1 [Example 41, 6-{(R)-5-[4-(6-methoxy-quinolin-4-ylamino)-piperidin-1-ylmethyl]-2-oxo-oxazolidin-3-yl}-4H-benzo[1,4]thiazin-3-one]
≤ 0.031	COc1ccc2nccc(OC3CN(C[C@@H]4CN(c5ccc6c(c5)NC(=O)CS6)C(=O)O4)C3)c2n1 [Example 1, 6-{(R)-5-[3-(6-methoxy-[1,5]naphthyridin-4-yloxy)-azetidin-1-ylmethyl]-2-oxo-oxazolidin-3-yl}-4H-benzo[1,4]thiazin-3-one]
≤ 0.031	COc1ccc2nccc(/C=C/C3CCN(C[C@@H]4CN(c5ccc6c(c5)NC(=O)CS6)C(=O)O4)C3)c2n1 (mixture of isomers) [Example 9, 6-((R)-5-{(RS)-3-[(E)-2-(6-methoxy-[1,5]naphthyridin-4-yl)-vinyl]-pyrrolidin-1-ylmethyl}-2-oxo-oxazolidin-3-yl)-4H-benzo[1,4]thiazin-3-one]
≤ 0.031	COc1ccc2nccc(NC3CN(C[C@@H]4CN(c5ccc6c(c5)NC(=O)CO6)C(=O)O4)C3)c2n1 [Example 24, 6-{(R)-5-[3-(6-methoxy-[1,5]naphthyridin-4-ylamino)-azetidin-1-ylmethyl]-2-oxo-oxazolidin-3-yl}-4H-benzo[1,4]oxazin-3-one]
≤ 0.031	COc1ccc2ncnc(OC3CCN(C[C@@H]4CN(c5ccc6c(c5)OCCO6)C(=O)O4)C3)c2c1 (mixture of isomers) [Example 4, (R)-3-(2,3-dihydro-benzo[1,4]dioxin-6-yl)-5-[(RS)-3-(6-methoxy-quinazolin-4-yloxy)-pyrrolidin-1-ylmethyl]-oxazolidin-2-one]
0.063 (≈ 0.131 µM)	O=C1CSc2ccc(N3C[C@@H](CN4CC(Nc5ccnc6ccc(F)cc56)C4)OC3=O)cc2N1 [Example 39, 6-{(R)-5-[3-(6-fluoro-quinolin-4-ylamino)-azetidin-1-ylmethyl]-2-oxo-oxazolidin-3-yl}-4H-benzo[1,4]thiazin-3-one]
